Laboratory results: patent publication US20160024597A1, “miRNAs AS THERAPEUTIC TARGETS IN CANCER” (The Research Foundation For The State University Of New York, priority 2009, published 2016)

Experiments:
[1] = system: CD133+hi/CD44+hi colon cancer stem-like cells; assay: 5-FU cell death assay, FITC Annexin V and PI flow cytometry; type: cell-based; conditions: FACS-sorted CD133+hi/CD44+hi cells, lethal dose of 5-FU (100 μM) for 48 h
Method: HCT 116 (wt-p53) cells were sorted with multiparametric flow cytometry with BD FACS Aria cell sorter (Becton Dickinson, CA) at sterile conditions. Cells were prepared as described above and labeled with one or several markers conjugated anti-human CD133-PE (clone 105902; R&D Systems, MN); CD44-FITC (clone F10-44-2, R&D Systems, MN). Antibodies were diluted in buffer containing 5% BSA, 1 mM EDTA and 15-20% blocking reagent (Miltenyi Biotec, CA) to inhibit unspecific binding to non-target cells. After 15 min incubation at 4° C., stained cells were washed, resuspended in 500 μl of MACS buffer and sorted.
(§1) Colon cancer stem-like cells were transfected with 100 nM of LNA anti-miR-140 using Lipofectamine 2000 after FACS-sorting. […] The dead cells were determined by the fluorescein isothiocyanate (FITC) Annexin V and PI detection kit (BD Biosciences, Pharmingen, San Diego, Calif., USA). Briefly, cells were harvested and resuspended in 1× Annexin V binding and stained with Annexin V (5 μl) and PI (5 μl) for 15 min at room temperature in the dark. After additional 400 μl of binding buffer, cells were analyzed by flow cytometry. […]

[2] = system: nonsorted control HCT 116 (wt-p53) cells; assay: as above; type: cell-based, human; conditions: lethal dose of 5-FU (100 μM) for 48 h
Method: as §1

MG63 cells (mut-p53) [3] = assay: WST-1 cell proliferation assay after miR-140 transfection; type: cell-based; conditions: 100 nM transfected, day 5, n=6
Method: (§2) Cells were plated in six-well plates at a density of 2×10^5 cells/well. The next day, cells were transfected with 100 nM of miR-140 precursor or non specific miR control (Ambion, Inc.) with Oligofectamine (Invitrogen Inc.) based on the manufacturer's instructions. Positive control siRNA specific against HDAC4 (ON-TARGET plus SMARTpool L-003497-00-0010, human HDAC4, NM 006037) was purchased from Dharmacon and transfected with Oligofectamine according to the manufacturer's protocols at a final concentration of 100 nM.
(§3) Cells were plated in 96-well plates with 6 repeats at 2,000 cells/well after transfection with miR-140 or miR control. Cells were cultured for 24, 48, 72, 96 and 120 h. The absorbance at 450 and 630 nm was measured after incubation with 10 μl of WST-1 for 1 h.

U-2 OS cells (wt-p53) [4] = assay: as above; type: cell-based; conditions: U-2 OS (wt-p53), 100 nM transfected, day 5, n=6
Method: as §2, §3

HCT 116 (null-p53) cells [5] = assay: as above; type: cell-based, human; conditions: 100 nM transfected, day 5, n=6
Method: as §2, §3

HCT 116 (wt-p53) cells [6] = assay: as above; type: cell-based, human; conditions: 100 nM transfected, day 5, n=6
Method: as §2, §3

MG63 cells (mut-p53) [7] = assay: Cell cycle analysis by flow cytometry; type: cell-based; conditions: 100 nM, 36 h after transfection
Method: (§4) Cells were transfected with miR-140 and miR control described as above. At 36 h after transfection, cells were harvested and resuspended at 0.5-1×10^5 cells/ml in modified Krishan buffer (He, 2007; Tarasov, 2007), containing 0.1% sodium citrate and 0.3% NP-40 and kept at 4° C. Before being analyzed by flow cytometry, cells were treated with 0.02 mg/ml RNase H and stained with 0.05 mg/ml propidium iodide (Sigma).

U-2 OS cells (wt-p53) [8] = assay: Cell cycle analysis by flow cytometry; type: cell-based; conditions: U-2 OS (wt-p53), 100 nM, 36 h after transfection, vs miR control
Method: as §4

HCT 116 (null-p53) cells [9] = assay: Cell cycle analysis by flow cytometry; type: cell-based, human; conditions: 100 nM, 36 h after transfection
Method: as §4

HCT 116 (wt-p53) cells [10] = assay: Cell cycle analysis by flow cytometry; type: cell-based, human; conditions: 100 nM, 36 h after transfection, vs miR control
Method: as §4

HDAC4 mRNA = HDAC4 mRNA expression by real time qRT-PCR; type: cell-based, human; conditions: U-2 OS (wt-p53) and HCT 116 (wt-p53) cells, 100 nM, 24 hrs, GAPDH normalized
Method: as §2
Total RNA, including miRNAs, was isolated from cell lines or clinical specimens by using TRIzol reagent (Invitrogen, Inc.) according to the manufacturer's instructions to determine whether the cells were transfected with miR control, miR-140 or siHDAC4 at a final concentration of 100 nM for 24 hrs before RNA isolation.
cDNA was synthesized with the High Capacity cDNA synthesis kit (Applied Biosystems) using 2 μg of total RNA as the template and 10× random primers. Real-time qPCR analysis was done on the experimental mRNAs. The PCR primers and probes for HDAC4, and the internal control gene GAPDH were purchased from Applied Biosystems. qRT-PCR was done on an ABI 7500HT instrument under the following conditions: 50° C., 2 min for one cycle; 95° C., 10 min; 95° C., 15 s; 60° C., 1 min for 40 cycles (n=3).

HDAC4 protein = HDAC4 protein expression by Western immunoblot after transfection; type: cell-based, human; conditions: U-2 OS (wt-p53) and HCT 116 (wt-p53) cells, 100 nM, 48 h after transfection
Method: as §2
Forty-eight hours after transfection with miR-140 or miR control, cells were harvested and lysed in 1×RIPA buffer (Sigma) supplied with 100 uM PMSF (sigma) and proteinase inhibitor cocktail (Sigma). Equal amounts of protein were resolved by a 8% SDS-PAGE gels using the method of Laemmli (Laemmli, 1970), and transferred to polyvinylidene fluoride membranes (BIO-RAD Laboratories). The membranes were then blocked by 5% nonfat milk in TBST (Tris-buffered saline and 1% Tween-20) at room temperature for 1 h. The primary antibodies used for the analysis included goat anti-HDAC4 polyclonal Ab (1:1000, N-18), mouse anti-p53 mAb (1:1000, DO-1), mouse anti-p21 mAb(1:1000, F-5), mouse anti-tubulin mAb (1:1000, TU-02), all from Santa Cruz Biotechnology. […]

p53 = p53 expression by Western immunoblot; type: cell-based; conditions: U-2 OS (wt-p53) and HCT 116 (wt-p53) cells, 48 h after transfection
Method: (§5) Forty-eight hours after transfection with miR-140 or miR control, cells were harvested and lysed in 1×RIPA buffer (Sigma) supplied with 100 uM PMSF (sigma) and proteinase inhibitor cocktail (Sigma). Equal amounts of protein were resolved by a 8% SDS-PAGE gels using the method of Laemmli (Laemmli, 1970), and transferred to polyvinylidene fluoride membranes (BIO-RAD Laboratories). The membranes were then blocked by 5% nonfat milk in TBST (Tris-buffered saline and 1% Tween-20) at room temperature for 1 h. The primary antibodies used for the analysis included goat anti-HDAC4 polyclonal Ab (1:1000, N-18), mouse anti-p53 mAb (1:1000, DO-1), mouse anti-p21 mAb(1:1000, F-5), mouse anti-tubulin mAb (1:1000, TU-02), all from Santa Cruz Biotechnology. Horseradish peroxidase-conjugated antibodies against mouse or goat (1:1000, Santa Cruz Biotechnology) were used as the secondary antibodies. Protein bands were visualized with a chemiluminescence detection system using Super Signal substrate (Pierce).

p21 = p21 expression by Western immunoblot; type: cell-based; conditions: U-2 OS (wt-p53) and HCT 116 (wt-p53) cells, 48 h after transfection
Method: as §5

HCT 116 (wt-p53) cells [11] = assay: Chemosensitivity assay to methotrexate (WST-1); type: cell-based, human; conditions: 100 nM transfected, methotrexate 10-1000 nM for 72 h, vs miR control
Method: U-2 OS and HCT 116 (wt-p53) cells were replated in 96-well plates at 2×10^3 cells/well in triplicate after transfected with miR-140, miR control, or siRNA against HDAC4 in 100 μl of medium. Twenty-four hours later, methotrexate (ranged from 10-1000 nM) was added and incubated for 72 h. Ten μl of WST-1 (Roche Applied Science) was added to each well. After 1 h incubation, absorbance was measured at 450 and 630 nm respectively. Non-specific miRNA was used as the negative control.

HCT 116 (wt-p53) cells [12] = assay: Chemosensitivity assay to 5-fluorouracil (WST-1); type: cell-based, human; conditions: 100 nM transfected, 5-FU 2 to 100 μM for 72 h, vs miR control
Method: HCT 116 (wt-p53) cells were replated in 96-well plates at 2×10^3 cells per well in triplicate after transfected with miR-140, miR control or siRNA against HDAC4 in 100 μl of medium. After 24 h, 5-FU (ranged from 2 to 100 μM) was added and incubated for 72 h. WST-1 (10 μl) was added to each well. After 1 h incubation, absorbance was measured. Nonspecific miR was used as the negative control.

O=c1[nH]cc(F)c(=O)[nH]1 [5-FU, 5-fluorouracil]
cell death [1]: about 20% | cell death [2]: > 80%

miR-140: miR-140 precursor (Ambion) transfected at 100 nM to overexpress human miR-140 (SEQ ID NO:1/2) (chain 1 AGUGGUUUUACCUAUGGUAG; chain 2 CAGUGGUUUUACCCUAUGGUAG; listed as RNA, chemistry not given here; listed as Homo sapiens)
suppression of cellular proliferation (MG63 cells (mut-p53) [3]): 31.3±4.96% | suppression of cellular proliferation (U-2 OS cells (wt-p53) [4]): 64.05±4.01% | suppression of cellular proliferation (HCT 116 (null-p53) cells [5]): 22.42±1.88% | suppression of cellular proliferation (HCT 116 (wt-p53) cells [6]): 81.4±3.75% | G1 and G2 arrest (MG63 cells (mut-p53) [7]): has not been observed | G1 arrest (U-2 OS cells (wt-p53) [8]): 1.76 fold | G2 arrest (U-2 OS cells (wt-p53) [8]): 0.92 fold | G1 and G2 arrest (HCT 116 (null-p53) cells [9]): has not been observed | G1 arrest (HCT 116 (wt-p53) cells [10]): 3.33 fold | G2 arrest (HCT 116 (wt-p53) cells [10]): 2.54 fold | HDAC4 mRNA expression (HDAC4 mRNA): no change | HDAC4 protein expression (HDAC4 protein): clearly decreased | p53 protein expression (p53): increased | p21 protein expression (p21): increased | chemosensitivity to methotrexate of transfected cells (HCT 116 (wt-p53) cells [11]): more resistant | chemosensitivity to 5-fluorouracil of transfected cells (HCT 116 (wt-p53) cells [12]): more resistant
